For two molecules, dyskinesia, seizures and Death rate results are on record in US20040117125A1, “Drug discovery method and apparatus” (priority 1999, published 2004).

The test system of one data set is MPTP-treated monkeys. The settings on record: combined with L-Dopa or selective dopamine agonists (D1 or D2); cited from earlier work.
In a further data set the test system is GABA-A. The experiment in a line: Fluridone/bicuculline in vivo GABA-A agonism/antagonism assay. Conditions: mice, bicuculline 5 mg/kg alone.

Structures are written as SMILES.

Take `CCn1c(=O)c2c(nc(/C=C/c3ccc(OC)c(OC)c3)n2C)n(CC)c1=O` [KW-6002]: the dyskinesia entry with MPTP-treated monkeys is “does not induce dyskinesia”.
For `CN1CCc2cc3c(cc2[C@H]1[C@@H]1OC(=O)c2c1ccc1c2OCO1)OCO3` [bicuculline], the seizures entry in the data set with GABA-A is “induced immediate seizures”. Also, the Death rate in the data set with GABA-A (within ten to twenty second after injection) was found to be 100%.
